In data set [1] the test system is Caco-2 cells. The experiment in a line: Caco-2 study, Permeability (%) of lipidated peptides (Example 3). The class given is in vitro ADME, human. To be noted: 0.1 mg/mL peptide. The procedure, abridged:
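Caco-2 monolayers on Transwell filters; peptides with permeation enhancers added apically, incubated for set periods. Peptide in starting sample and apical and basal media measured by HPLC. Permeability (%) = cumulative amount transported divided by original loading amount.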
A general note: Caco-2 cells form a polarised layer with tight junctions and transporters.

Data set [2] is described as follows: Third rat ID infusion study, stabilized peptides vs semaglutide (Example 6). To be noted: in vivo. The protocol: The third rat ID infusion study was performed to compare bioavailability of stabilized peptides MEDI7219 (SEQ ID NO:2) and SEQ ID NO:6 with that of semaglutide, H-His-Aib-[…]AEEAc-AEEAc-γ-Glu-17-carboxyheptadecanoyl)-[…]OH (SEQ ID NO:11), (Novo Nordisk), an un-stabilized GLP-1 peptide analog, that only has Aib in its sequence for protection from circulating DPP-IV peptidases, (Table 7 and FIG. 2B).

Data set [3] in a line: Canine tablet site of absorption study, SEQ ID NO:6 tablets in acid-resistant capsules or IntelliCap (Example 12). To be noted: dog; for Tmax / half-life / AUC(0-t) / Cmax: in vivo; for bioavailability: plasma. The class given is in vivo. The method, then:
A third site of absorption study was performed to evaluate the absorption sites and tablet formulations in acid-resistant capsules in canines. The tablet manufacturing process was as follows: All ingredients were passed through a US sieve #35 (0.5 mm opening), and the resultant powder was compacted using a pellet press. Compacted material was again passed through a US sieve #35 (0.5 mm opening) to form granules. […] Tablets in this study were either placed in acid-resistant capsules (Table 18, Groups 1 and 2) or in IntelliCap® (Table 18, Groups 3 and 4).

Data set [4] is described as follows: in vivo. To be noted: dog, po. An excerpt: The following materials and methods were used for quantitative measurements of GLP-1 peptide analogs in plasma (e.g., rat or dog plasma) in the Examples below. These methods used a SCIEX 6600 TripleTOF mass spectrometer coupled with a Shimadzu ultra-high performance liquid chromatography (UHPLC). The specificity of the method was ensured by the retention time, the selected mass for Single-Reaction-Monitoring (SRM) mode, and the selected fragment mass in MS/MS (MS^2) mode. […] The analytes of interest were analyzed from plasma, a complex biological matrix. Although protein precipitation using organic solvent can reduce matrix interference, significant background still persists. The high mass accuracy offered by the TripleTOF mass spectrometers further eliminated background noise, thus enhancing signal: noise (S/N) and allowing improved quantification.
The plasma extraction procedure used the following steps: • Samples, standards, and quality controls were incubated until they reached room temperature. They were then incubated at 60° C. for 2 minutes and cooled down to room temperature, vortexed, and spun down. • 70 μL of samples, standards, or quality controls were transferred into a 1 mL 96-well plate. • In each well, 420 uL of Precipitation Solution was added. The plate was sealed and shook for 10 minutes on a plate shaker at 600 rpm. • The plate was centrifuged at 18G, 2500 RFC, 20° C. for 10 minutes. • The plate was carefully removed, and the upper clear supernatant was extracted with a 200 uL multichannel pipette into a new 96-well protein lobind plate. The supernatant was extracted twice for each well, and the supernatants were combined. • The Plate was placed in TurboVap and the extracted supernatant was dried completely with heated (65° C.) Nitrogen gas at 60 Fahrenheit (Fh). • After the plate was completely dry, the plates were covered and incubated at room temperature for at least 30 minutes until the plate returned back to ambient temperature. • 150 μL of Reconstitution solution was added to each well. The plate was covered with a pierceable place seal and shaken at 600 rpm for 10 minutes. • The samples were submitted to the LC-MS/MS on the same day of Preparation
Quantification of the data obtained using the high resolution SCIEX 6600 instrument was then performed as follows: • For the quantification, extracted ion chromatograms (XIC) using 0.2 Da m/z extraction window centered on the accurate mass of each fragment ion were generated. Accurate mass was calculated from the structure of the compound. […] Concentrations of the target analyte in unknown samples were obtained by regression analysis using linear fits of peak areas vs. analyte concentration, weighted 1/(concentration). • The quality of the assay was controlled by the quality control samples. • Either Experiment 1 or Experiment 2 could be used for the quantification of the GLP-1 peptide analogs in high resolution mode.
MEDI7219 (SEQ ID NO:2) formulations were studied in the following canine study, which was designed to compare different tablet delivery systems and peptides in enterically coated tablet formulation compositions delivered orally. […]
The efficacy of sodium caprate as a permeation enhancer was also evaluated.

In data set [5] the test system is Gastrointestinal (GI) tract tissues. The experiment in a line: Microscopic evaluation of gastrointestinal tract tissues after intraduodenal dosing (Example 4). To be noted: rat, following administration of 50 mg/kg sodium caprate. In kind it is in vivo.
Where [6] appears, read: canine, Intravenous, 0.031 mg/kg, 0.031 mg/mL peptide in Tris Mannitol, pH 8.0.
Where [7] appears, read: canine, Oral IntelliCap released in proximal colon, 0.96 mg/kg, 10 mg peptide, 100 mg Na CDC, 50 mg PG tablet.
The mark [8] stands for this setting: canine, Oral, 0.54 mg/kg, 5 mg peptide, 100 mg Na CDC, 50 mg PG tablet in Acid-resistant capsule.
The mark [9] stands for this setting: canine, Oral, 1.08 mg/kg, 10 mg peptide, 100 mg Na CDC, 50 mg PG tablet in Acid-resistant capsule.

A word on the half-life: it is the time needed for the level to fall by half in the phase considered. Usually bioavailability stands for the share of a dose that reaches the circulation, judged against a reference dose that is usually intravenous. As usually defined, the AUC is concentration integrated over time. Read a high AUC as high exposure. As usually defined, the Cmax is the maximum level reached in the sampled fluid or tissue. As a reminder, the Tmax is the time from dosing to the highest level. One may read the AUC(0-t) as exposure summed from dosing to a finite time, without extrapolation to infinity.

Starred links: 1 amine or outer side, 2 acyl side, 3 side chain; linkers in the order of their positions; H or OH if unused. Non-standard residues stand in square brackets, D forms with d. Residues, ends and D or L forms follow the SMILES beside them. Groups on a side chain read outwards from the residue. ξ: configuration not given here. *: point of attachment. γGlu = O=C(O)[C@H](CCC(=O)[*:2])N[*:1]; Palmitoyl = CCCCCCCCCCCCCCCC(=O)*; ξαMeF = CC(N)(Cc1ccccc1)C(=O)O; Lauroyl = CCCCCCCCCCCC(=O)*; ξαMeK = CC(N)(CCCCN)C(=O)O; ξαMeS = CC(N)(CO)C(=O)O; AEEA = NCCOCCOCC(=O)O; Aib = CC(C)(N)C(=O)O

Consider `CCCCCCCCCCCC(=O)N[C@@H](CCC(=O)NCCOCCOCC(=O)NCCOCCOCC(=O)NCCCC[C@H](NC(=O)[C@H](C)NC(=O)[C@@H](NC(=O)[C@H](Cc1ccccc1)NC(=O)[C@H](CCC(=O)O)NC(=O)C(C)(CCCCN)NC(=O)[C@H](C)NC(=O)[C@H](C)NC(=O)[C@H](CCC(=O)O)NC(=O)CNC(=O)[C@H](CCC(=O)O)NC(=O)[C@H](CC(C)C)NC(=O)[C@H](CCCCNC(=O)COCCOCCNC(=O)COCCOCCNC(=O)CC[C@H](NC(=O)CCCCCCCCCCC)C(=O)O)NC(=O)[C@H](CO)NC(=O)C(C)(CO)NC(=O)[C@@H](NC(=O)[C@H](CC(=O)O)NC(=O)[C@H](CO)NC(=O)[C@@H](NC(=O)C(C)(Cc1ccccc1)NC(=O)[C@H](CO)NC(=O)CNC(=O)[C@H](CCC(=O)O)NC(=O)C(C)(C)NC(=O)[C@@H](N)Cc1c[nH]cn1)[C@@H](C)O)C(C)C)[C@@H](C)CC)C(=O)N[C@H](C(=O)N[C@H](C(=O)N[C@@H](CCC(=O)O)C(=O)NCC(=O)NCC(N)=O)C(C)C)C(C)C)C(=O)O` (some centres unmarked) [SEQ ID NO: 6, Free-H-[AIB]-EGS-[αMePhe]-TSDV-[αMeSer]-SK[(PEG2)2-γE-Lauroyl]-LEGEAA-[αMeLys]-EFIAK[(PEG2)2-γE-Lauroyl]-VVEGG-amide] (H-H[Aib]EGS[ξαMeF]TSDV[ξαMeS]SK([AEEA-AEEA-γGlu-Lauroyl])LEGEAA[ξαMeK]EFIAK([AEEA-AEEA-γGlu-Lauroyl])VVEGG-NH2), for which the “Permeability (%)” value is on record as 1.21% in data set [1] (5.0 mg/mL Sodium Chenodeoxycholate) and 13.3% in data set [1] (25 mg/mL Sodium Chenodeoxycholate). For the same compound, the F result in data set [2] is “significantly higher absolute bioavailability via ID route than semaglutide”; in data set [2] (iv, 0.01 mg/kg), 100%. For the same compound, the half-life was 9 h in data set [2]; 9.2 h in data set [2] (iv, 0.01 mg/kg); 6.76 h in data set [3] (po, […]); 7.21 h in data set [3] (setting [6]); 5.37 h in data set [3] (setting [7]); 6.99 h in data set [3] (setting [8]). The compound further showed a half-life in data set [3] (setting [9]) of 6.31 h. Further, the bioavailability in data set [2] (1 mg/kg) stood at 1.2%; in data set [3] (po, […]), 2.46%; in data set [3] (setting [7]), 2.79%; in data set [3] (setting [8]) it was 1.3%; in data set [3] (setting [9]), 3.63%. The same compound showed an AUC in data set [2] (iv, 0.01 mg/kg) of 1080 ng·h/mL. Besides, the Cmax in data set [2] (iv, 0.01 mg/kg) was found to be 211 ng/mL; in data set [3] (setting [6]), 27.3 ng/mL; in data set [3] (setting [7]), 210 ng/mL; in data set [3] (setting [8]), 47.3 ng/mL; in data set [3] (setting [9]), 279 ng/mL. In addition, the time of peak concentration (Tmax) in data set [3] (po, […]) worked out at 0.857 h; in data set [3] (setting [6]) it was 0.444 h; in data set [3] (setting [7]), 2.14 h; in data set [3] (setting [8]), 1.64 h; in data set [3] (setting [9]) it was 1.79 h. For the same compound, the AUC(0-t) in data set [3] (setting [6]) was determined as 147 ± 19.9 ng·h/mL; in data set [3] (setting [7]), 1490 ng·h/mL; in data set [3] (setting [8]) it was 325 ± 467 ng·h/mL; in data set [3] (setting [9]), 1970 ng·h/mL.
In data set [4], `CCCCCCCCCCCCCCCC(=O)N[C@@H](CCC(=O)NCCOCCOCC(=O)NCCOCCOCC(=O)NCCCC[C@H](NC(=O)[C@H](C)NC(=O)[C@@H](NC(=O)C(C)(Cc1ccccc1)NC(=O)[C@H](CCC(=O)O)NC(=O)C(C)(CCCCN)NC(=O)[C@H](C)NC(=O)[C@H](C)NC(=O)[C@H](CCC(=O)O)NC(=O)CNC(=O)[C@H](CCC(=O)O)NC(=O)[C@H](CC(C)C)NC(=O)[C@H](CCCCNC(=O)COCCOCCNC(=O)COCCOCCNC(=O)CC[C@H](NC(=O)CCCCCCCCCCCCCCC)C(=O)O)NC(=O)[C@H](CO)NC(=O)C(C)(CO)NC(=O)[C@@H](NC(=O)[C@H](CC(=O)O)NC(=O)[C@H](CO)NC(=O)[C@@H](NC(=O)C(C)(Cc1ccccc1)NC(=O)[C@H](CO)NC(=O)CNC(=O)[C@H](CCC(=O)O)NC(=O)C(C)(C)NC(=O)[C@@H](N)Cc1c[nH]cn1)[C@@H](C)O)C(C)C)[C@@H](C)CC)C(=O)N[C@H](C(=O)N[C@H](C(=O)N[C@@H](CCC(=O)O)C(=O)NCC(=O)NCC(N)=O)C(C)C)C(C)C)C(=O)O` (some centres unmarked) [SEQ ID NO: 10, Free-H-[AIB]-EGS-[αMePhe]-TSDV-[αMeSer]-SK[(PEG2)2-γE-Palmitoyl]-LEGEAA-[αMeLys]-E-[αMePhe]-IAK[(PEG2)2-γE-Palmitoyl]-VVEGG-amide] (H-H[Aib]EGS[ξαMeF]TSDV[ξαMeS]SK([AEEA-AEEA-γGlu-Palmitoyl])LEGEAA[ξαMeK]E[ξαMeF]IAK([AEEA-AEEA-γGlu-Palmitoyl])VVEGG-NH2) showed an AUC of 23700 ng·h/mL, a PK variability of 52.3% and a half-life of 33 h.
For `CCCCCCCCCC(=O)[O-].[Na+]` [sodium caprate], in data set [5], the “Gastrointestinal (GI) tract tissues upon microscopic evaluation” value is listed as “looked normal”.
